Assays:
[1] = target: T1, human recombinant serotonin (5-Hydroxytryptamine) 5-HT6 receptor (Homo sapiens, UniProt P50406); test: Serotonin 5-HT6 radioligand binding ([3H]LSD); settings: compound at 0.1 μM; read-out: Inhibition of ligand binding, Serotonin 5-HT6 (percent inhibition of specific binding)
T1 construct: expressed in transfected cells; host or cells: HeLa
Source text: Receptor proteins were filtered and washed, the filters were then counted to determine [3H]LSD specifically bound.

[2] = target: T2, human recombinant serotonin (5-Hydroxytryptamine) 5-HT2A receptor (Homo sapiens, UniProt P28223); test: Serotonin 5-HT2A radioligand binding ([3H]Ketanserin); settings: compound at 0.1 μM; read-out: Inhibition of ligand binding, Serotonin 5-HT2A (percent inhibition of specific binding)
T2 construct: expressed in transfected cells; host or cells: CHO-K1
T2 sequence (P28223 whole entry): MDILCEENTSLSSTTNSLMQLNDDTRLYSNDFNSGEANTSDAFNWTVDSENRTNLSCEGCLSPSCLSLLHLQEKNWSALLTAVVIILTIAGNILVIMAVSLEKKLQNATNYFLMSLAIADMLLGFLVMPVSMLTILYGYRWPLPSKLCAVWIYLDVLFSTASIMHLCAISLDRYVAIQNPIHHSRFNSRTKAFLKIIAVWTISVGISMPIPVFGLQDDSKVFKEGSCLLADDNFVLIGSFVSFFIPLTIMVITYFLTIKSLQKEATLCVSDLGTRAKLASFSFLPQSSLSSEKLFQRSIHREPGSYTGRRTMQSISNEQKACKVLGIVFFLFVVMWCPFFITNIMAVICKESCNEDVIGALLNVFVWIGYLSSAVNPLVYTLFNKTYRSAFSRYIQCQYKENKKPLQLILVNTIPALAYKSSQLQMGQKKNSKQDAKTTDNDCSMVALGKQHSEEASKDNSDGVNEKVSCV
Description: Compounds of the invention were incubated with 0.5 nM [^3H]Ketanserin for 60 min at 25° C. Non-specific binding was estimated in the presence of 1 μM Mianserin. Receptor proteins were filtered and washed, the filters were then counted to determine [^3H]Ketanserin specifically bound.

[3] = target: T3, human recombinant histamine H1 receptor (Homo sapiens, UniProt P35367); test: Histamine H1 radioligand binding ([3H]Pyrilamine); settings: read-out: Histamine H1 Binding (1 μM), percent inhibition of specific binding; compound at 1 μM; 1.2 nM [3H]Pyrilamine
T3 construct: expressed in transfected cells; host or cells: CHO-K1
T3 sequence (P35367 whole entry): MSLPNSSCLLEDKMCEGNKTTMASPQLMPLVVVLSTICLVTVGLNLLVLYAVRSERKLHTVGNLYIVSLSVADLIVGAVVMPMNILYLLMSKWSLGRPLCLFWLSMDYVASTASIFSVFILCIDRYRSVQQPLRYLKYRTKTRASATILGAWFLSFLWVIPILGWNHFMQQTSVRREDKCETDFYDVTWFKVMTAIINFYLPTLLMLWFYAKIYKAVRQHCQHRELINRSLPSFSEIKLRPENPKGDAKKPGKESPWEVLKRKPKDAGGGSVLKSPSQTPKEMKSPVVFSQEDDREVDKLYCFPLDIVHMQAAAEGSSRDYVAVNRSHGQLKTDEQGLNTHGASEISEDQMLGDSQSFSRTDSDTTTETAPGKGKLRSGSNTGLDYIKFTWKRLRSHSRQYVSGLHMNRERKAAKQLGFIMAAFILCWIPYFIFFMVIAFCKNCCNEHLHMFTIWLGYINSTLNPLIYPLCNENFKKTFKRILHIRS
Description: To evaluate in radioligand binding assays the activity of compounds of the invention, human recombinant histamine H1 receptor expressed in Chinese hamster ovary (CHO) K1 cells (De Backer, M. et al, Biochem. Biophys. Res. Comm. 197(3):1601, 1993) in a modified Tris-HCl buffer (50 mM Tris-HCl, pH 7.4, 2 mM MgCl2, 100 mM NaCl, 250 mM Sucrose) was used. […] Non-specific binding was estimated in the presence of 1 μM Pyrilamine. Receptor proteins were filtered and washed, the filters were then counted to determine [^3H]Pyrilamine specifically bound. […] Biochemical assay results are presented as the percent inhibition of specific binding in Table 2.

[4] = target: T4, human recombinant dopamine D2L receptor (Homo sapiens, UniProt P14416); test: Dopamine D2L radioligand binding ([3H]Spiperone); settings: read-out: Dopamine D2L (1 μM), percent inhibition of specific binding; compound at 1 μM; 0.16 nM [3H]Spiperone
T4 construct: expressed in transfected cells; host or cells: CHO
T4 sequence (P14416 whole entry): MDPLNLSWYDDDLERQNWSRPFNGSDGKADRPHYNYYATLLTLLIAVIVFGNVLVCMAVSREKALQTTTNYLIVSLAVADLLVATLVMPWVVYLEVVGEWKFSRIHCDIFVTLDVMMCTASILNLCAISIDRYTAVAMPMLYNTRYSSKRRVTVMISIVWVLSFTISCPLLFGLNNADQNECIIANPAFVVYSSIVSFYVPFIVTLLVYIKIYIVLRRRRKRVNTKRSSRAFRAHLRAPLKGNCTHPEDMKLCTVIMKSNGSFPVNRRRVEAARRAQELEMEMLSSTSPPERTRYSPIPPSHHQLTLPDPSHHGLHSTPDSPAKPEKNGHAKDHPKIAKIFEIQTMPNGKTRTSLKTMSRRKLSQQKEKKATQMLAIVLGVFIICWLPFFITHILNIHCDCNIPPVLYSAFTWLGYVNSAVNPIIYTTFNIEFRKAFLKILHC
Description: Non-specific binding was estimated in the presence of 10 μM Haloperidol. Receptor proteins were filtered and washed, the filters were then counted to determine [^3H]Spiperone specifically bound.

[5] = target: T5, human recombinant serotonin (5-Hydroxytryptamine) 5-HT7 receptor (Homo sapiens, UniProt P34969); test: Serotonin 5-HT7 radioligand binding ([3H]LSD); settings: compound at 0.1 μM; read-out: Inhibition of ligand binding, Serotonin 5-HT7 (percent inhibition of specific binding)
T5 construct: expressed in transfected cells; host or cells: CHO
T5 sequence (P34969 whole entry): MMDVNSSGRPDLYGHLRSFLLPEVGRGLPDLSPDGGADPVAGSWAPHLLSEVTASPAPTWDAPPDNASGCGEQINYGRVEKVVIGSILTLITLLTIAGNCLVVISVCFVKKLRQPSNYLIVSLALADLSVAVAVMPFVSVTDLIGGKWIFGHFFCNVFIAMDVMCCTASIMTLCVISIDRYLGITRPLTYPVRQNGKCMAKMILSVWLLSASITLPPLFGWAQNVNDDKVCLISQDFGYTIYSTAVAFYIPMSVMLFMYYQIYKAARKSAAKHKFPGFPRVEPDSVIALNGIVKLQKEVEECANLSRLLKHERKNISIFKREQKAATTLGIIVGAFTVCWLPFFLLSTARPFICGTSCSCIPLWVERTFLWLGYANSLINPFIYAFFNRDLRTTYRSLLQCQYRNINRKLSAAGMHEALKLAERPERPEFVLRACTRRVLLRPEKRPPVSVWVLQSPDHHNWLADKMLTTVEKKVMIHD
Description: Lysergic acid diethylamide (LSD) for 120 min. at 25° C. […] Receptor proteins were filtered and washed, the filters were then counted to determine [^3H]LSD specifically bound.

[6] = target: T6, human recombinant serotonin (5-Hydroxytryptamine) 5-HT2C receptor (Homo sapiens, UniProt P28335); test: Serotonin 5-HT2C radioligand binding ([3H]Mesulergine); settings: compound at 0.1 μM; read-out: Inhibition of ligand binding, Serotonin 5-HT2C (percent inhibition of specific binding)
T6 construct: expressed in transfected cells; host or cells: CHO-K1
T6 sequence (P28335 33-458): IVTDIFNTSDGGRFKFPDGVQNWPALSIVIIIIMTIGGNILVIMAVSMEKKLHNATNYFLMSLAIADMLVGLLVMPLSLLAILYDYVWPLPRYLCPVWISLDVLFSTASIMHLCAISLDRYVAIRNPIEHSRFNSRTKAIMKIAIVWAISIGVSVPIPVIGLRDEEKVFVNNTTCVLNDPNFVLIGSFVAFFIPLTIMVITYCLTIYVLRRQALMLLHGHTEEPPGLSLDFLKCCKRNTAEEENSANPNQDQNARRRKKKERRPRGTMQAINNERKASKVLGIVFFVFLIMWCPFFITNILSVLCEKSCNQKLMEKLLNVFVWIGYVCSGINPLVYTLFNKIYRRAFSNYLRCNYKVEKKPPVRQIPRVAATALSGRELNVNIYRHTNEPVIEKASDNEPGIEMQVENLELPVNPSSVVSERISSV
Description: Compounds of the invention were incubated with 1 nM [^3H]Mesulergine for 60 min at 25° C. Non-specific binding was estimated in the presence of 1 μM Mianserin. Receptor proteins were filtered and washed, the filters were then counted to determine [^3H]Mesulergine specifically bound.

T1 sequence (P50406 whole entry): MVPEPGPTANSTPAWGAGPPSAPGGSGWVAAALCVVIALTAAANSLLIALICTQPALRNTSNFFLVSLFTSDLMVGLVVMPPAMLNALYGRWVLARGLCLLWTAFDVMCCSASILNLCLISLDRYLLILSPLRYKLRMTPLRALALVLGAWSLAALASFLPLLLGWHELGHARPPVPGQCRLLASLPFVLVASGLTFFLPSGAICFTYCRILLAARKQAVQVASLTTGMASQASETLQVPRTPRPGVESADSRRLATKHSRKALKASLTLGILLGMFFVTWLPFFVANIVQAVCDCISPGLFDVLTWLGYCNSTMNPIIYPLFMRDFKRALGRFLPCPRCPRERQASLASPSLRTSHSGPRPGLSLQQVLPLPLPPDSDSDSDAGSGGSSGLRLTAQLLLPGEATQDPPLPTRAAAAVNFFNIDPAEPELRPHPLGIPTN

| Compound | inhibition at 0.1 µM [1] [%] | inhibition at 0.1 µM [2] [%] | inhibition at 1 µM [3] [%] | inhibition at 1 µM [4] [%] | inhibition at 0.1 µM [5] [%] | inhibition at 0.1 µM [6] [%] |
| --- | --- | --- | --- | --- | --- | --- |
| Cc1ccc2c(c1)c1c(n2-c2cscc2-c2ccncc2)CCN(C)C1 [Compound 20, 2,8-dimethyl-5-(4-pyridin-4-yl-thiophen-3-yl)-2,3,4,5-tetrahydro-1H-pyrido[4,3-b]indole] | 18 | 78 | 42 | 9 | 97 | 85 |
| Cc1ccc2c(c1)c1c(n2-c2cscc2-c2ccccc2)CCN(C)C1 [Compound 21, 2,8-dimethyl-5-(4-phenyl-thiophen-3-yl)-2,3,4,5-tetrahydro-1H-pyrido[4,3-b]indole] | 62 | 90 | 86 | 54 | 99 | 96 |
| Cc1ccc2c(c1)c1c(n2-c2ccccc2-c2ccccc2)CCN(C)C1 [Compound 8, 5-biphenyl-2-yl-2,8-dimethyl-2,3,4,5-tetrahydro-1H-pyrido[4,3-b]indole] | 52 | 99 | 92 | 30 | 65 | 97 |
| Cc1ccc2c(c1)c1c(n2-c2cccc(N(C)C)c2)CCN(C)C1 [Compound 7, [3-(2,8-dimethyl-1,2,3,4-tetrahydro-pyrido[4,3-b]indol-5-yl)-phenyl]-dimethyl-amine] | 4 | 52 | 43 | 31 | 19 | 42 |
| Cc1ccc2c(c1)c1c(n2-c2cscc2-c2cccnc2)CCN(C)C1 [Compound 22, 2,8-dimethyl-5-(4-pyridin-3-yl-thiophen-3-yl)-2,3,4,5-tetrahydro-1H-pyrido[4,3-b]indole] | 14 | 75 | 85 | 39 | 91 | 80 |
| CN1CCc2c(c3cc(Cl)ccc3n2-c2ccsc2)C1 [Compound 29, 8-chloro-2-methyl-5-thiophen-3-yl-2,3,4,5-tetrahydro-1H-pyrido[4,3-b]indole] | 101 | 101 | 90 | 63 | 63 | 98 |
| Cc1ccc2c(c1)c1c(n2-c2ccncc2)CCN(C)C1 [Compound 2, 2,8-dimethyl-5-pyridin-4-yl-2,3,4,5-tetrahydro-1H-pyrido[4,3-b]indole] | 17 | 74 | 51 | 13 | 36 | 54 |
| Cc1ccc2c(c1)c1c(n2-c2cscc2-c2ccc(F)cc2)CCN(C)C1 [Compound 23] | 45 | 83 | 72 | 44 | 98 | 90 |
| Cc1ccc2c(c1)c1c(n2-c2ccccc2-c2cnccc2C)CCN(C)C1 [Compound No. 159, 2,8-dimethyl-5-(2-(4-methylpyridin-3-yl)phenyl)-2,3,4,5-tetrahydro-1H-pyrido[4,3-b]indole] | 0 | 48 | – | – | 19 | – |
| Cc1ccc2c(c1)c1c(n2-c2ncccc2-c2ccncc2)CCN(C)C1 [Compound No. 161, 5-(3,4′-bipyridin-2-yl)-2,8-dimethyl-2,3,4,5-tetrahydro-1H-pyrido[4,3-b]indole] | 4 | 17 | – | – | 18 | – |
| CN1CCc2c(c3cc(Cl)ccc3n2-c2cscc2-c2cccnc2)C1 [Compound 27] | 30 | 67 | 76 | 26 | 94 | 72 |
| Cc1ccc2c(c1)c1c(n2-c2ccc3ncccc3c2)CCN(C)C1 [Compound 24, 2,8-dimethyl-5-quinolin-6-yl-2,3,4,5-tetrahydro-1H-pyrido[4,3-b]indole] | 12 | 72 | 10 | 45 | 25 | 66 |
| Cc1ccc2c(c1)c1c(n2-c2cnc(C)c3ccccc23)CCN(C)C1 [Compound No. 164, 2,8-dimethyl-5-(1-methylisoquinolin-4-yl)-2,3,4,5-tetrahydro-1H-pyrido[4,3-b]indole] | 1 | 23 | – | – | 4 | – |
| CN1CCc2c(c3cc(Cl)ccc3n2-c2cscc2-c2ccncc2)C1 [Compound 28] | 45 | 68 | 46 | 20 | 95 | 76 |
| Cc1ccc2c(c1)c1c(n2-c2ccc(C)nc2)CCN(C)C1 [Compound 3, 2,8-dimethyl-5-(6-methyl-pyridin-3-yl)-2,3,4,5-tetrahydro-1H-pyrido[4,3-b]indole] | 20 | 36 | 10 | 16 | 8 | 26 |
| Cc1ccc2c(c1)c1c(n2-c2cncn2C)CCN(C)C1 [Compound 18, 2,8-dimethyl-5-(3-methyl-3H-imidazol-4-yl)-2,3,4,5-tetrahydro-1H-pyrido[4,3-b]indole] | 2 | 14 | 79 | 13 | 22 | 8 |
| Cc1ccc2c(c1)c1c(n2-c2ccccc2N(C)C)CCN(C)C1 [Compound 6, [2-(2,8-dimethyl-1,2,3,4-tetrahydro-pyrido[4,3-b]indol-5-yl)-phenyl]-dimethyl-amine] | 28 | 91 | 99 | 58 | 49 | 90 |
| COc1ccc(-n2c3c(c4cc(C)ccc42)CN(C)CC3)cn1 [Compound 17, 5-(6-Methoxy-pyridin-3-yl)-2,8-dimethyl-2,3,4,5-tetrahydro-1H-pyrido[4,3-b]indole] | 17 | 62 | 23 | 10 | 1 | 44 |
| CN1CCc2c(c3cc(Cl)ccc3n2-c2cscc2-c2ccc(F)cc2)C1 [Compound 25] | 56 | 81 | 80 | 39 | 94 | 91 |
| Cc1ccc2c(c1)c1c(n2-c2ccccc2-c2ccc(S(C)(=O)=O)cc2)CCN(C)C1 [Compound No. 160, 2,8-dimethyl-5-(4′-(methylsulfonyl)biphenyl-2-yl)-2,3,4,5-tetrahydro-1H-pyrido[4,3-b]indole] | 18 | 36 | – | – | 17 | – |
| Cc1ccc2c(c1)c1c(n2-c2ccccc2-c2ccc(S(N)(=O)=O)cc2)CCN(C)C1 [Compound No. 163, 2′-(2,8-dimethyl-3,4-dihydro-1H-pyrido[4,3-b]indol-5(2H)-yl)biphenyl-4-sulfonamide] | 13 | 73 | – | – | 36 | – |
